The values below come from publication PMC6077758, “Gambogic Acid and Its Analogs Inhibit Gap Junctional Intercellular Communication” (Frontiers in Pharmacology, 2018).

As usually defined, the IC50 is the concentration needed to halve the response being measured.

Values joined by “and” are separate entries in the source; they are usually repeats but may differ in a detail not shown here. Equal entries are not always repeated.

The subject of assay [1] is GJIC in LN215 glioma cells. Put plainly: I-YFP GJIC assay in LN215 cells. It counts as cell-based, human. As to conditions: for Inhibition of GJIC (in words): treated 10 min before assay, LN215 glioma cells. The method, then:
The I-YFP GJIC assay was conducted as previously reported ([Lee et al., 2015], [2016]). The scheme of the assay is as follows: donor cells express SLC26A4 as an iodide transporter to allow iodide to the influx and donate iodide to acceptor cells through GJs; the acceptor cells express YFP^QL as an iodide sensor, for which the fluorescence is rapidly and sensitively quenched by iodide transferred from donor cells. A 2:1 mixture of the donor (LN215-I) and acceptor (LN215-YFP) cells were plated on 96-well plates at a density of 20,000 cells/well and grown for 24 h. After the medium was removed, the cells were treated with 100 μL of C-solution (10 mM HEPES, pH 7.4, 140 mM NaCl, 10 mM glucose, 5 mM KCl, 1 mM MgCl2, 1 mM CaCl2) containing vehicle or chemicals, as indicated. A POLARstar microplate reader (BMG Labtech, Ortenberg, Germany) equipped with an automated injector was utilized in the kinetic mode to read the YFP fluorescence of a well every 0.4 s for 10 s. An equal volume of I-solution, with the same composition as C-solution, except for the substitution of NaCl with NaI, was injected into the well 1 s after each recording was started. The % YFP quenching and % GJIC activity were calculated from a previously reported formula ([Lee et al., 2016]).
FIGURE 2 Inhibition of GJIC by GA, D-GA, and T-GA. I-YFP GJIC assay (see Materials and Methods) was conducted using LN215-I and LN215-YFP cells. The vehicle, GA (A), D-GA (B), or T-GA (C) was diluted in C-solution and applied to cells at the concentrations indicated above for 10 min before the GJIC assay. The mean % of GJIC activity ± SD of three independent experiments is presented as bar graphs.

The target in a further assay is T1, Cx40 (Homo sapiens, UniProt P36382).
T1 construct: expressed in transfected cells; host or cells: GJA1-null LN215 human glioma cells, lentiviral transduction (pLVX-EIBla-Cx40)
Put plainly: I-YFP GJIC assay, LN215-Cx40 cells. It counts as cell-based. As to conditions: 10 min treatment, best fit value ± standard error; read-out: IC50 for inhibition of Cx40-GJIC. The method, then:
(§1) GJA1-null LN215 cells were plated on a 24-well plate at 30% confluency, cultivated for 24 h, and transduced with 200 μL of conditioned medium containing lentivirus mixed with an equal volume of fresh growth medium for 15 h. The growth medium was refreshed followed by incubation for a further 72 h before selection with 2 μg/mL puromycin for one week.
(§2) The I-YFP GJIC assay was conducted as previously reported ([Lee et al., 2015], [2016]). The scheme of the assay is as follows: donor cells express SLC26A4 as an iodide transporter to allow iodide to the influx and donate iodide to acceptor cells through GJs; the acceptor cells express YFP^QL as an iodide sensor, for which the fluorescence is rapidly and sensitively quenched by iodide transferred from donor cells. […] A POLARstar microplate reader (BMG Labtech, Ortenberg, Germany) equipped with an automated injector was utilized in the kinetic mode to read the YFP fluorescence of a well every 0.4 s for 10 s. […] The % YFP quenching and % GJIC activity were calculated from a previously reported formula ([Lee et al., 2016]). […]
(§3) FIGURE 10 IC50 values of D-GA and CBX inhibition of GJs composed of Cx43, Cx40, or Cx30. […] The percentage of GJIC inhibition was calculated and plotted against the log [compound] […] The IC50 values were calculated using GraphPad Prism 5.

Assay [2] addresses T2, Cx43 (Homo sapiens, UniProt P17302).
T2 construct: expressed in transfected cells; host or cells: GJA1-null LN215 human glioma cells, lentiviral transduction (pLVX-CIBla-Cx43)
Put plainly: I-YFP GJIC assay, LN215-Cx43 cells. It counts as cell-based. As to conditions: 10 min treatment, best fit value ± standard error; read-out: IC50 for inhibition of Cx43-GJIC. The method, then:
as §1, §2, §3

Another assay has as its target T3, Cx30 (Homo sapiens, UniProt O95452).
T3 construct: expressed in transfected cells; host or cells: GJA1-null LN215 human glioma cells, lentiviral transduction (pLVX-CIBla-Cx30)
Briefly: I-YFP GJIC assay, LN215-Cx30 cells. It counts as cell-based. The following applies: 10 min treatment, best fit value ± standard error; read-out: IC50 for inhibition of Cx30-GJIC. The method, then:
as §1, §2, §3

The subject of assay [3] is Cx43. It counts as cell-based, human. The following applies: LN215-Cx43 cells. The method, then: To assess the cellular level and S368 phosphorylation status of Cx43 on cell surfaces and in whole lysates, LN215-Cx43 cells on 100 mm culture plates were biotinylated using EZ-Link^TM Sulfo-NHS-SS-Biotin (ThermoFisher Scientific, Cat. No. 21331) according to the manufacturer’s instructions followed by lysis with PBS containing 1% Triton X-100, 1x protease inhibitor cocktail (Roche), and 1x phosphatase inhibitor cocktail (Pierce). Protein concentration was determined using a BCA assay. To collect surface proteins, 500 μg of protein was bound to 20 μL of NeutrAvidin^TM Agarose (Pierce) followed by elution with 2x Laemmli sample buffer. The surface samples and 20 μg of whole lysates were analyzed using immunoblotting as previously described ([Lee et al., 2016]). To confirm the knockout of GJA1, whole lysates were prepared without surface biotinylation. […] The protein band densities were measured using ImageJ software.
FIGURE 5 Effect of D-GA treatment on surface expression and S368 phosphorylation of Cx43. […] The images before cropping are also presented in Supplementary Figures 1A–E. The relative phospho-S368 Cx43 band intensity, divided by the total Cx43 band intensity, is reflective of Cx43 S368-phosphorylation and was calculated and presented as bar graphs (B). […]

The test system of the next assay is LN215 cells. Briefly: Measurement of DCFH oxidation (ROS). The following applies: D-GA 20 μM 10 min, H2O2 30 min. It counts as cell-based, human. The method, then:
looseness1 LN215 cells were grown to confluency on 96-well plates, washed three times with C-solution, and treated with 100 μL C-solution containing 10 μM 2′–7′-dichlorodihydrofluorescein diacetate (DCFH-DA, Sigma-Aldrich) for 1 h; subsequently, the DCF fluorescence was measured. Chemical treatment was conducted during the DCFH-DA loading period. The DCF fluorescence value, which reflects cellular oxidative stress, was measured using a POLARstar microplate reader using excitation and emission wavelengths of 495 and 520, respectively.
FIGURE 7 No ROS generation results from D-GA treatment in LN215 cells. LN215 cells were plated in 96-well plates and grown to full confluency. After washing with C-solution, the cells were loaded with 10 μM DCFH-DA diluted in C-solution for 1 h before fluorometry. H2O2 or D-GA was added after 30 min or 10 min before the measurement, respectively. The data are the mean ± SD (n = 3). ^∗p < 0.05 (Student’s t-test).

For another assay, the target named is T4, SLC26A4 (Homo sapiens, UniProt O43511).
T4 construct: expressed in transfected cells
T4 sequence (O43511 1-780): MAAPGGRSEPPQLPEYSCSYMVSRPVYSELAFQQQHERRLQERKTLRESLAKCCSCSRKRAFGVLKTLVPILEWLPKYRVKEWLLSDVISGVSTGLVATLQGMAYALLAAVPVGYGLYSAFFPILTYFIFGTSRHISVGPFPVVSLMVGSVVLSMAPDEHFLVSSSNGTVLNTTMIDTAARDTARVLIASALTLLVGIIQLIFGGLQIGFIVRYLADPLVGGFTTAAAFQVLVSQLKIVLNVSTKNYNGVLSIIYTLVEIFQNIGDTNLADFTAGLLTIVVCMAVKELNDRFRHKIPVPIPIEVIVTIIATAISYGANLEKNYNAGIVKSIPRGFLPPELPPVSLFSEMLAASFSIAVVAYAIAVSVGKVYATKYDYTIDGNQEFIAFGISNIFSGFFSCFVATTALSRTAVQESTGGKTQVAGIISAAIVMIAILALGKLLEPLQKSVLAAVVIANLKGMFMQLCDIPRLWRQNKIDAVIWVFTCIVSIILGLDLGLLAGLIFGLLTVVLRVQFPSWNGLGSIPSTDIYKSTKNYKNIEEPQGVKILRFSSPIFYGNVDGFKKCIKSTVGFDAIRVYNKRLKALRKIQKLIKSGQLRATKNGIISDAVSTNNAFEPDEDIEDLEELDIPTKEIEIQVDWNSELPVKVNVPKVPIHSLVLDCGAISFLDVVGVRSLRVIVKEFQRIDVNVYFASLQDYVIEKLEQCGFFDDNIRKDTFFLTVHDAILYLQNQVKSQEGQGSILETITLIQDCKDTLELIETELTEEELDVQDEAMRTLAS
Briefly: SLC26A4 inhibition (Supplementary Figure 4). It counts as cell-based.

T2 sequence (P17302 2-382 limits assumed): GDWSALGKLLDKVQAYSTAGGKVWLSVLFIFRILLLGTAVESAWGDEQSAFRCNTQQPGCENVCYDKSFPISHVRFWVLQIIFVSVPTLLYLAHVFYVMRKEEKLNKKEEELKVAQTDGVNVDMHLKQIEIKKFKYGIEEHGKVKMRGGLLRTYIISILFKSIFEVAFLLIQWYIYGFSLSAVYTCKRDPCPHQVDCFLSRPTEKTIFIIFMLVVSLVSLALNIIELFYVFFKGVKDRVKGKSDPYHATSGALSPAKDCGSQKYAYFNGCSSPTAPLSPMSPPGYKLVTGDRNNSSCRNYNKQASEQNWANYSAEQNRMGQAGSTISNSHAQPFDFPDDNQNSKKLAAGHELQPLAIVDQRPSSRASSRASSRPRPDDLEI
T3 sequence (O95452 whole entry): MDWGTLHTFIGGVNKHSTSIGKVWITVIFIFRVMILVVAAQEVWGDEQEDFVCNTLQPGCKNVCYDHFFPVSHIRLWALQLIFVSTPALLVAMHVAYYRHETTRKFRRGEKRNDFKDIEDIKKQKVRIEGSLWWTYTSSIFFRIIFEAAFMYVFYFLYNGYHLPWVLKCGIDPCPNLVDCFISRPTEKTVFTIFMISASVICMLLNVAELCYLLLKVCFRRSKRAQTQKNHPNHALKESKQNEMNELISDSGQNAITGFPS
T1 sequence (P36382 whole entry): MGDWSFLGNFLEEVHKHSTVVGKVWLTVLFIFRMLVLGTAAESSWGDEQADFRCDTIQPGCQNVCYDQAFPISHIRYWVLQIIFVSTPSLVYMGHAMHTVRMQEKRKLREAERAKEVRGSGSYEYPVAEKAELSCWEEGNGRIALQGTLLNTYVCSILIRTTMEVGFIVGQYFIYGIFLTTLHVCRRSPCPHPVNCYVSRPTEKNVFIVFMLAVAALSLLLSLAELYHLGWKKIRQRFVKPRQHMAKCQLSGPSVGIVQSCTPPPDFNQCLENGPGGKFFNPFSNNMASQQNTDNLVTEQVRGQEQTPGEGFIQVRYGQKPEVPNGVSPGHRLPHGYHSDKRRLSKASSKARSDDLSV

With `CC(=O)OCOC(=O)CN(CC(=O)OCOC(C)=O)c1ccccc1OCCOc1ccccc1N(CC(=O)OCOC(C)=O)CC(=O)OCOC(C)=O` [BAPTA-AM, reference compound], the “Effect of pre-treatment on GJIC activity” value in assay [1] (5 μM BAPTA-AM 30 min, control or 20 μM D-GA-treated LN215 cells) is “did not change the GJIC activity”.
With `CC1(C)[C@@H](OC(=O)CCC(=O)O)CC[C@]2(C)[C@H]3C(=O)C=C4[C@@H]5C[C@@](C)(C(=O)O)CC[C@]5(C)CC[C@@]4(C)[C@]3(C)CC[C@@H]12` [CBX, carbenoxolone, reference compound], the values for the IC50 on Cx40, at Cx43 [2] and at Cx30 were 105 µM, 5.6 ± 1.1 µM and 748.2 ± 1.3 µM, respectively.
Turning to `CC(C)=CCCC1(C)C=Cc2c(O)c3c(c(CC=C(C)C)c2O1)OC12C(=CC4CC1C(C)(C)OC2(C/C=C(/C)C(=O)O)C4O)C3=O` [D-GA, dihydrogambogic acid], the “S368 phosphorylation of surface Cx43 vs vehicle” value in the assay with Cx43 [3] (10 min, 20 μM D-GA or 100 ng/mL PMA + 50 ng/mL EGF) is “did not increase S368 phosphorylation”. Moreover, in the assay on Cx43 [3] (20 μM D-GA 10 min or 1 μg/mL BFA + 10 μg/mL CHX 6 h), the “Cx43 level on cell surfaces” value is given as “increased threefold”. Further, in the assay on LN215 cells, the “DCF fluorescence (cellular ROS production)” value is listed as “did not increase DCF fluorescence”. Besides, the 50% inhibitory concentration (IC50) turned out to be 5.1 µM on Cx40, 13.1 ± 1.1 µM at Cx43 [2] and 81.1 ± 1.1 µM on Cx30. The “% GJIC activity” value in assay [1] (20 μM for 10 min, LN215-I and LN215-YFP cells, mean ± SD) is 18.1% ± 15.7% and 17.6% ± 7.3%. The “% GJIC activity after washing” value in assay [1] (20 μM for 10 min, washed, further 20 min incubation in absence of compound) was 91.4% ± 2.5%. In addition, the “Inhibition of GJIC (in words)” value in assay [1] is “inhibited by these compounds in a dose-dependent manner”.
On to `CC(C)=CCC[C@]1(C)C=Cc2c(O)c3c(c(CC=C(C)C)c2O1)O[C@]12C(=C[C@@H]4C[C@H]1C(C)(C)O[C@@]2(C/C=C(/C)C(=O)O)C4=O)C3=O` [GA, Gambogic acid], for which, in assay [1], the “Inhibition of GJIC (in words)” value is “inhibited by these compounds in a dose-dependent manner”. Besides, on SLC26A4, the “Inhibition of SLC26A4” value was “did not inhibit SLC26A4”.
On to `OO` [H2O2, reference compound], for which the “DCF fluorescence (cellular ROS production)” value in the assay on LN215 cells is recorded as “dose-dependent increase”.
Regarding `Cc1[nH]nc(-c2cc(S(=O)(=O)NC3CCCc4ccccc43)c(C)s2)c1C` (stereo not drawn) [PDSinh-C01, reference compound], the “Inhibition of SLC26A4” value at SLC26A4 is “potently inhibited”.
Regarding `CC(C)=CCCC1(C)C=Cc2c(O)c3c(c(CC=C(C)C)c2O1)OC12C(CC4CC1C(C)(C)OC2(CC=C(C)C(=O)O)C4O)C3=O` (stereo not drawn) [T-GA, tetrahydrogambogic acid], the “Inhibition of GJIC (in words)” value in assay [1] is given as “inhibited by these compounds in a dose-dependent manner”.
